Results published in the NIST ThermoML archive (doi:10.1021/je060200b).

Assay: xn = mol fraction of the nth substance listed
Settings: 101 kPa, Liquid; for speed of sound: Pulse-echo method; for mass density: Vibrating tube method

BrCCCCCBr [1,5-dibromopentane] + CCCCCCC
Settings	mass density [kg/m3]	speed of sound [m/s]
292.38 K, x1 = 1	–	1149.5
292.52 K, x1 = 0.1006	779.97	–
292.52 K, x1 = 0.1994	875.92	–
292.52 K, x1 = 0.3003	975.53	–
292.52 K, x1 = 0.4008	1075.8	–
292.52 K, x1 = 0.5004	1176.68	–
292.52 K, x1 = 0.5999	1278.62	–
292.52 K, x1 = 0.6995	1381.6	–
292.52 K, x1 = 0.8002	1487.16	–
292.52 K, x1 = 0.899	1591.59	–
292.52 K, x1 = 1	1699.54	–
292.56 K, x1 = 0.4	–	1103.5
292.59 K, x1 = 0.5001	–	1104.2
292.65 K, x1 = 0.2	–	1116.5
292.68 K, x1 = 0.3001	–	1107.2
292.73 K, x1 = 0.7999	–	1126.3
292.75 K, x1 = 0.8998	–	1137.3
292.76 K, x1 = 0.6	–	1108.4
292.8 K, x1 = 0.6997	–	1116.2
292.83 K, x1 = 0.1	–	1131.1
298.05 K, x1 = 0.1006	775.18	–
298.05 K, x1 = 0.1994	870.87	–
298.05 K, x1 = 0.3003	969.84	–
298.05 K, x1 = 0.4008	1070.23	–
298.05 K, x1 = 0.5004	1170.91	–
298.05 K, x1 = 0.5999	1272.47	–
298.05 K, x1 = 0.6995	1375.26	–
298.05 K, x1 = 0.8002	1480.47	–
298.05 K, x1 = 0.899	1584.66	–
298.05 K, x1 = 1	1691.87	–
298.37 K, x1 = 1	–	1133
298.59 K, x1 = 0.5001	–	1084.5
298.62 K, x1 = 0.4	–	1082.8
298.63 K, x1 = 0.2	–	1093.8
298.67 K, x1 = 0.3001	–	1085.7
298.73 K, x1 = 0.8998	–	1120.2
298.76 K, x1 = 0.7999	–	1108.6
298.77 K, x1 = 0.6	–	1089.6
298.8 K, x1 = 0.6997	–	1098.1
298.83 K, x1 = 0.1	–	1106.8
303.06 K, x1 = 0.1006	770.79	–
303.06 K, x1 = 0.1994	866	–
303.06 K, x1 = 0.3003	964.71	–
303.06 K, x1 = 0.4008	1064.63	–
303.06 K, x1 = 0.5004	1165.02	–
303.06 K, x1 = 0.5999	1266.37	–
303.06 K, x1 = 0.6995	1368.9	–
303.06 K, x1 = 0.8002	1474.36	–
303.06 K, x1 = 0.899	1578.04	–
303.06 K, x1 = 1	1684.89	–
303.39 K, x1 = 1	–	1119.3
303.59 K, x1 = 0.2	–	1075.1
303.63 K, x1 = 0.3001	–	1068
303.64 K, x1 = 0.4	–	1065.8
303.64 K, x1 = 0.5001	–	1068.3
303.67 K, x1 = 0.8998	–	1106.3
303.71 K, x1 = 0.7999	–	1094.2
303.72 K, x1 = 0.6	–	1074.2
303.78 K, x1 = 0.6997	–	1083.1
303.86 K, x1 = 0.1	–	1086.5
308.08 K, x1 = 0.1006	766.31	–
308.08 K, x1 = 0.1994	861.23	–
308.08 K, x1 = 0.3003	959.36	–
308.08 K, x1 = 0.4008	1058.93	–
308.08 K, x1 = 0.5004	1159.11	–
308.08 K, x1 = 0.5999	1260.5	–
308.08 K, x1 = 0.6995	1362.98	–
308.08 K, x1 = 0.8002	1467.91	–
308.08 K, x1 = 0.899	1571.77	–
308.08 K, x1 = 1	1678.03	–
308.38 K, x1 = 1	–	1105.8
308.55 K, x1 = 0.2	–	1056.4
308.58 K, x1 = 0.4	–	1049.1
308.58 K, x1 = 0.5001	–	1052.4
308.67 K, x1 = 0.3001	–	1050
308.67 K, x1 = 0.8998	–	1092.3
308.69 K, x1 = 0.6	–	1058.9
308.7 K, x1 = 0.7999	–	1079.8
308.82 K, x1 = 0.6997	–	1068.1
308.84 K, x1 = 0.1	–	1066.7
314.36 K, x1 = 1	–	1089.7
314.52 K, x1 = 0.5001	–	1033.4
314.54 K, x1 = 0.3001	–	1029.3
314.61 K, x1 = 0.2	–	1033.8
314.66 K, x1 = 0.1006	760.22	–
314.66 K, x1 = 0.1994	854.58	–
314.66 K, x1 = 0.3003	952.58	–
314.66 K, x1 = 0.4008	1052	–
314.66 K, x1 = 0.5004	1151.72	–
314.66 K, x1 = 0.5999	1252.55	–
314.66 K, x1 = 0.6995	1354.65	–
314.66 K, x1 = 0.8002	1459.75	–
314.66 K, x1 = 0.899	1562.81	–
314.66 K, x1 = 1	1668.75	–
314.67 K, x1 = 0.4	–	1028.8
314.68 K, x1 = 0.7999	–	1062.8
314.7 K, x1 = 0.8998	–	1075.6
314.75 K, x1 = 0.6	–	1040.2
314.82 K, x1 = 0.6997	–	1050.3
314.83 K, x1 = 0.1	–	1042.8
